Data reported in patent publication US12617757B2, “Compounds and modules for inhibition of pre-miR-21 and their use in treatment of certain cancers” (University of Florida Research Foundation, Incorporated, priority 2019, dated 2026).
Where two headings read alike, the source gives them in different places.

Legend:
pre-miR-21 WT = experiment: Microscale thermophoresis (MST) binding to pre-miR-21 WT; details: read-out: Kd, binding of the pre-miR-21 RNA Dicer site
Protocol: (§1) Microscale Thermophoresis (MST) Binding Measurements. MST fluorescent measurements were performed on a Monolith NT.115 system (NanoTemper Technologies) using the fluorescence of a miR-21 hairpin (A+U Bulge): (5′ Cy5-[…]-3′) (SEQ ID NO: 1) or a miR-21 base paired control (5′ Cy5-[…]-3′) (SEQ ID NO: 2) which were purchased from IDT with RNase-free HPLC purification and used without further purification. The RNA (5 nM) was diluted in 1×MST Buffer (8 mM Na2HPO4, 190 mM NaCl, 1 mM EDTA, and 0.05% (v/v) Tween-20) and folded by heating at 60° C. for 5 min, and slowly cooling to room temperature. Compounds 1 and 2 were diluted in 1×MST Buffer, followed by 1:3 dilutions in 1×MST Buffer containing 5 nM RNA. […] Fluorescence measurements (Ex: 605-645 nm, Em: 680-685 nm) were performed at 10% LED and 80% MST power, with a Laser-On time of 30 s and Laser-Off time of 5 s. The data were analyzed by thermophoresis analysis and fitted by the quadratic binding equation in MST analysis software (NanoTemper Technologies). Dissociation constants were then determined by curve fitting using a single-site model. Normalized MST signal was calculated by normalizing the fluorescent signals using the MST data of 1 binding to pre-miR-21 WT with the lowest signal as 0 and the highest fluorescent signal as 1.

pre-miR-21 BP = experiment: MST binding to pre-miR-21 BP (base paired control); details: addition of 100 μM of compound
Protocol: as §1

pre-miR-21 WT RNA [1] = experiment: In vitro Dicer processing of pre-miR-21 WT; format: biochemical
Source text: (§2) In vitro Dicer processing. […] Cleavage products were resolved on a denaturing 15% polyacrylamide gel, which was imaged using a Molecular Dynamics Typhoon phosphorimager and quantified with Bio-Rad's QuantityOne software, normalizing to full length RNA.

pre-miR-21 BP RNA = experiment: In vitro Dicer processing of pre-miR-21 BP; format: biochemical
Source text: as §2

pre-miR-21 [2] = experiment: RT-qPCR of mature miR-21 and pre-miR-21 levels in MDA-MB-231 cells; format: cell-based, human; details: for effect on mature miR-21 levels / effect on pre-miR-21 levels: MDA-MB-231, RT-qPCR
Protocol: Cell culture compound treatment and transfection. For treatment with compounds, stocks in DMSO or water were diluted in growth media and added to cells for 24-72 h. For transfection of plasmid DNA to overexpress the miR-21 hairpin precursor in pcDNA3.1 (Addgene 21114) or pcDNA3-RNaseL (R. H. Silverman, Cleveland Clinic^24) in 24-well plates, Lipofectamine 2000 was used according to the manufacturer's protocol. After transfection, the medium was removed and replaced with growth medium containing compound prepared as described above. For transfection of a control (Santa Cruz Biotechnology: sc-37007) or RNase L targeting siRNA (Santa Cruz Biotechnology: sc-45965), Lipofectamine RNAiMAX Reagent was used for transfection of oligonucleotides, including 2′-5′ A4, according to the manufacturer's protocol.

pre-miR-21 [3] = experiment: Cellular Chem-CLIP / C-Chem-CLIP in MDA-MB-231 cells; format: cell-based, human; details: for enrichment of the pre-miR-21 transcript by Chem-CLIP: MDA-MB-231, RT-qPCR
Protocol: Cellular Chem-CLIP/C-Chem-CLIP. The MDA-MB-231 cells were grown to ˜70% confluency as monolayers in 60 mm dishes. The cells were treated with Chem-CLIP compounds (8 or 9) and/or non-cross-linking competitors (1 or 2) for 48 h. Total RNA was extracted using a Quick-RNA MiniPrep Kit (Zymo Research) per the manufacturer's protocol. Approximately 20-30 μg of total RNA was then incubated with 100 μL of streptavidin-agarose beads (Sigma-Aldrich) and shaken for 1 h at room temperature. The solution was removed beads washed six times with 1×PBS. The RNA bound to beads was released, purified, and used for RT-qPCR as previously described^23. Relative fold enrichment of the measured RNA before and after pulldown was measured using equation 3 (Eq. 3): Relative Fold Enrichment=2^−(ΔC^t^before pulldown−ΔC^t^after pulldown) (Eq. 3)
where “ΔCt before pulldown” is the difference between the Ct values for the RNA of interest and a housekeeping gene in total RNA from cells and “ΔCt after pulldown” is the difference between the Ct values for the RNA of interest and the same housekeeping gene in RNA after pulldown.

pre-miR-21 WT RNA [4] = experiment: In vitro Chem-CLIP pulldown; format: binding
Protocol: In vitro Chemical Cross-linking and Isolation by Pull Down (Chem-CLIP) and Competitive Chemical Cross-linking and Isolation by Pull Down (C-Chem-CLIP). RPMI growth medium was heat inactivated at 95° C. for 15 min and then cooled to room temperature. Approximately 10,000 counts of ^32P 5′-end labeled miR-21 precursor hairpin RNA (pre-miR-21 WT) was folded in growth medium at 95° C. for 1 min. After cooling to room temperature, dilutions of Chem-CLIP probes 8 or 9^23 were added and incubated at 37° C. for 18 h. Alternatively, for C-Chem-CLIP, dilutions of competing non-cross-linking parent compounds, 1 or 2, were incubated with RNA for 1 h before addition of Chem-CLIP probe compounds. Streptavidin-agarose beads (Sigma-Aldrich) were then used to pulldown RNA. Samples were then washed with 1×PBS supplemented with 0.1% (v/v) Tween-20 and bound and unbound RNA radioactivity measured using a Beckman Coulter LS6500 Liquid Scintillation Counter as previously described^23.

pri-miR-21 RNA = experiment: In vitro Ribo-SNAP; format: biochemical; details: dose responsive treatment
Protocol: In vitro Ribo-SNAP. The pri-miR-21 RNA (1 μM) was folded as described above. Dilutions of cleaver compounds (Bleomycin A5 or 10) were pre-activated by the addition of 1 eq Fe^2+ and added to the folded RNA in a total volume of 20 μL. After 30 min and 60 min, an additional equivalent of Fe^2+ was added and then the reaction mixtures were incubated at 37° C. overnight. After ethanol precipitation and quantification by Nanodrop, reverse transcription was performed using SuperScript™ III Reverse Transcriptase (ThermoFisher Scientific) per the manufacturer's protocol using a 5′ ^32P-labeled forward primer (˜10,000 counts). The A, T, G and C sequencing ladders were generated by using a ratio of ddNTP/dNTP of 3:1. The RNA was digested by the addition of RNase A and RNase H and incubated at 37° C. for 30 min. Then, an equal volume of Loading Buffer (95% […], 50 mM EDTA, 0.05% (w/v) bromophenol blue, 0.05% (w/v) xylene cyanol) was added to each reaction. The final mixture was resolved on a denaturing 15% polyacrylamide gel.

pri-miR-21 = experiment: Ribo-SNAP-Map in MDA-MB-231 cells; format: cell-based, human
Protocol: Ribo-SNAP-Map. The MDA-MB-231 cells were grown in 100 mm dishes to ˜70% confluency and treated with cleaving compound (10) for 6 h. Total RNA was then extracted by treatment with TRIzol (ThermoFisher Scientific) and quantified by Nanodrop. Approximately 10 μg of total RNA was used for reverse transcription with a pri-miR-21 specific primer (5′-[…]-3′; 2 pmol) (SEQ ID NO: 12) using Superscript III (SSIII; Life Technologies). Approximately of 10 μg RNA with 2 pmol of gene-specific primer and 1 μL 10 mM dNTP Mix in a total volume of 13 μL was incubated at 65° C. for 5 min and then placed in ice for 5 min. Next, 4 μL 5×First-Strand Buffer, 1 μL 0.1 M DTT, 1 μL RNaseOUT and 1 μL SuperScript™ III RT were added and the mixture was incubated at 50° C. for 1 h, followed by 85° C. for 10 min. After digestion with RNase A and RNase H, the remaining cDNA was purified using RNAClean XP beads (Beckman Coulter; 1.8 volumes of beads and 3 volumes of isopropanol).
The purified cDNA was ligated with a 3′ adapter (5′ Phosphate NNN-[…]-3′ Biotin) (SEQ ID NO: 13) by T4 RNA ligase 1 (New England BioLabs; NEB) following the manufacturer's recommended protocol (2 μL 10×T4 RNA ligase buffer, 1 μL of 1 mM ATP, 10 μL 50% PEG 8000, 5 μL cDNA, 1 μL of 20 μM ssDNA adaptor, and 1 μL of T4 RNA ligase). Then, the cDNA ligated to the adaptor was purified with RNAClean XP beads as described above. PCR amplification was performed with the ligated cDNA by using Phusion polymerase (NEB) with cycling conditions of 98° C. for 20 s, 64° C. for 20 s and 72° C. for 90 s and the following forward (5′-[…]-3′) (SEQ ID NO: 14) and reverse (5′-[…]-3′) (SEQ ID NO: 15) primers. The PCR products were separated on a denaturing 15% polyacrylamide gel and the target band was excised from the gel and ethanol precipitated. The purified DNA was ligated into a vector using NEB's PCR Cloning Kit per the manufacturer's protocol. Antibiotic-resistant colonies were selected and subjected to Sanger sequencing by Genewiz. The cleavage sites and percentage were determined by comparing the cleaver treated samples and non-treated samples.

pre-miR-210 = experiment: RT-qPCR of pre-miR-210 and miR-210 in hypoxic MDA-MB-231 cells; format: cell-based, human; details: hypoxic MDA-MB-231, RT-qPCR

## CN1CCN(c2ccc(-c3ccc4[nH]c(-c5ccc(OCCCC(=O)NCCCN=[N+]=[N-])cc5)nc4c3)cc2)CC1 [Compound 1]
pre-miR-21 WT
  Kd: 20 µM
pre-miR-21 BP
  saturation of the binding isotherm: No saturation of the binding isotherm was observed
pre-miR-21 WT RNA [1]
  inhibition of / protection from Dicer processing: Protection with compound is observed at U23 (boxes marked with arrows) and U26 and U27
pre-miR-21 WT RNA [1]; listed as Formula 1
  inhibition of / protection from Dicer processing: inhibited in vitro Dicer processing
pre-miR-21 BP RNA
  protection from Dicer processing: Protection with compound is observed at U26 and U27
pre-miR-21 [2]; 10 μM, MDA-MB-231
  increase of pre-miR-21 levels: 1.3 fold
  inhibition of miR-21 production: 50%
pre-miR-21 [2]
  effect on mature miR-21 levels: inhibits mature miR-21-5p biogenesis
  effect on pre-miR-21 levels: boosts levels of pre-miR-21
pre-miR-21 [3]; MDA-MB-231, versus probe 8
  competition of Chem-CLIP enrichment (C-Chem-CLIP): enrichment is depleted

## C#CCN(CC(=O)N(CCC)CC(=O)N(CCC)CC(=O)N(CCC)CC(=O)N(CC#C)CC(=O)NCCOCCOCCOCCOc1ccc(C=C2SC(Nc3ccccc3)=C(C(=O)OCC)C2=O)cc1O)C(C)=O [Compound 6]
pre-miR-21 [2]
  effect on mature miR-21 levels: inactive

## CCCN(CC(=O)N(CCC)CC(=O)N(CCC)CC(=O)N(CC(=O)NCCOCCOCCOCCOc1cc(C=C2SC(Nc3ccccc3)=C(C(=O)OCC)C2=O)ccc1O)Cc1cn(CCCNC(=O)CCCOc2ccc(-c3nc4cc(-c5ccc(N6CCN(C)CC6)cc5)ccc4[nH]3)cc2)nn1)C(=O)CN(Cc1cn(CCCNC(=O)CCCOc2ccc(-c3nc4cc(-c5ccc(N6CCN(C)CC6)cc5)ccc4[nH]3)cc2)nn1)C(C)=O [Compound 7]
pre-miR-21 [2]
  effect on mature miR-21 levels: decreased miR-21 levels
  effect on pre-miR-21 levels: increased pre-miR-21 levels
pre-miR-21 [2]; listed as Formula 7
  effect on mature miR-21 levels: did not have enhanced activity over Formula 2

## CC(=O)N(CCNC(=O)CCCc1ccc(N(CCCl)CCCl)cc1)CC(=O)N(CC(=O)N(CCNC(=O)CCCCC1SCC2NC(=O)NC21)CC(N)=O)Cc1cn(CCCNC(=O)CCCOc2ccc(-c3nc4cc(-c5ccc(N6CCN(C)CC6)cc5)ccc4[nH]3)cc2)nn1 (stereo not drawn) [Compound 8]
pre-miR-21 [3]; 10 μM, MDA-MB-231
  enrichment of pre-miR-21 by Chem-CLIP pulldown: ~2.5 fold
pre-miR-21 [3]; 10 μM
  enrichment of the pre-miR-21 transcript by Chem-CLIP: enrichment for the pre-miR-21 transcript
pre-miR-21 WT RNA [4]
  pulldown of 32P 5′-end labeled pre-miR-21 WT RNA: greater enrichment of the RNA compared to 9

## C#CCN(CC(=O)N(CCNC(=O)CCCCC1SCC2NC(=O)NC21)CC(N)=O)C(=O)CN(CCNC(=O)CCCc1ccc(N(CCCl)CCCl)cc1)C(C)=O (stereo not drawn) [Compound 9, reference compound]
pre-miR-21 [3]; 10 μM
  enrichment of the pre-miR-21 transcript by Chem-CLIP: no enrichment

## CCCN(CC(=O)N(CCC)CC(=O)N(CCC)CC(=O)N(CC(=O)NCCCCNCCCNC(=O)c1csc(-c2csc(CCNC(=O)C(NC(=O)C(C)[C@H](O)C(C)NC(=O)C(NC(=O)c3nc(C(CC(N)=O)NC[C@H](N)C(N)=O)nc(N)c3C)[C@@H](OC3OC(CO)C(O)C(O)C3OC3OC(CO)C(O)C(OC(N)=O)C3O)c3c[nH]cn3)C(C)O)n2)n1)Cc1cn(CCCNC(=O)CCCOc2ccc(-c3nc4cc(-c5ccc(N6CCN(C)CC6)cc5)ccc4[nH]3)cc2)nn1)C(=O)CN(Cc1cn(CCCNC(=O)CCCOc2ccc(-c3nc4cc(-c5ccc(N6CCN(C)CC6)cc5)ccc4[nH]3)cc2)nn1)C(C)=O (stereo partly drawn) [Compound 10]
pre-miR-21 [2]
  effect on mature miR-21 levels: decreases mature miR-21 levels
  effect on pre-miR-21 levels: cleaved and decreased pre-miR-21 levels
pri-miR-21 RNA
  RT stops induced in pri-miR-21: induced an RT stop at the indicated sites
pri-miR-21; 3/21 reads
  reads that stop at the second A (3′): 14%
pri-miR-21; 6/21 reads
  reads that stop at the third A (3′): 29%
pri-miR-21; 12/21 reads
  reads that stop at the first C (5′): 57%

## CCOC(=O)C1=C(Nc2ccccc2)SC(=Cc2ccc(OCCOCCOCCOCCNC(=O)CCCOc3cccc(-c4nc5ccc(-c6nc7cc(N8CCN(C)CC8)ccc7[nH]6)cc5[nH]4)c3)c(O)c2)C1=O [Compound 25]
pre-miR-210
  effect on pre-miR-210: Cleavage of pre-miR-210

## CN1CCN(c2ccc3nc(-c4ccc5nc(-c6cccc(OCCCC(=O)NCCCN=[N+]=[N-])c6)[nH]c5c4)[nH]c3c2)CC1 [Compound 26]
pre-miR-210
  effect on mature miR-210 levels: inhibits mature miR-210 levels
  effect on pre-miR-210: boosts levels of pre-miR-21
